In patent US20150352078A1, “PHARMACEUTICAL COMPOSITION FOR DISEASES CAUSED BY PATHOGENIC MICROORGANISMS SUCH AS CANDIDA” (POLA PHARMA INC., priority 2013, published 2015):
≈ marks a conversion by molar mass, not a printed value. Like-named read-outs stand apart in the source and are kept apart here.

Assays:
Candida albicans = experiment: In vitro antifungal activity on Candida albicans, broth microdilution method; type: cell-based; settings: 48 hours, 80% growth inhibition, turbidity at 630 nm, read-out: minimum growth inhibitory concentration (MIC80)
Protocol: The minimum growth inhibitory concentration (MIC) was measured by means of the broth microdilution method (medicament ×2 dilution series) based on the use of […] medium (pH 7.0) buffered with 0.165 M morpholinopropanesulfonic acid. 100 μL of test microorganism yeast cells/sterilized physiological saline suspensions (1 to 5×10^3 cells/mL) and 100 μL of media previously added with respective compounds and medium not added with, compounds as a control were dispensed into respective wells of flat-bottom microculture plate.

Trichomonas vaginalis = experiment: Effect on growth of clinically isolated Trichomonas vaginalis in Trichomonas medium F (Neutral Red colour, microscopic observation); type: cell-based; settings: for MIC: Trichomonas vaginalis, 72 hours culture, read-out: minimum growth inhibitory concentration (MIC); for Color: Neutral Red marker (yellow = acid production/growth); for Color / Result of microscopic observation: 37° C., 72 hours; for Result of microscopic observation: inverted microscope
Protocol: The effect on Trichomonas vaginalis was investigated for luliconazole of the compound represented by the general formula (1). That is, 5×10^6 cells of clinically isolated Trichomonas vaginalis were seeded in Trichomonas medium F (6.5 mL, contained in tube) produced by Fujiyakuhin Co., Ltd. containing Neutral Red as a marker, and the preculture was carried out for 72 hours (preculture). It was confirmed that Trichomonas grew, the acid was actively produced, and Neutral Red was changed to be yellow. After that, the preculture was added to Trichomonas medium F by every 100 μL in order to carry out the main culture, to which 0.5 mL of a test solution was added. In this situation, the number of protozoas in the solution of preculture was 1.5×10^5 cells/mL. Three series of test solutions were prepared, in which the luliconazole concentrations were 200 μM (final concentration: 35.2 μM), 100 μM (final concentration: 17.6 μM), and 50 μM (final concentration: 8.8 μM), as luliconazole dissolved in 10% methanol saline solution. 0.5 mL of vehicle was added as a control. As for the vehicle, 10% methanol saline solution (final concentration: 0 μM) was used. Stirring was sufficiently performed after the addition, followed by culturing at 37° C. for 72 hours. After the completion of the cultivation, the color was discriminated, and the state of protozoas was observed by using an inverted microscope.
The same or equivalent investigation as that of Example 1 was performed while changing luliconazole to lanoconazole.

[1] = test system: Chlamydia trachomatis (D/UW3/Cx); experiment: Anti-intracellular parasite action on Chlamydia trachomatis cultured in HeLa 229 host cells, fluorescent staining of inclusion bodies; type: cell-based
Protocol: The anti-intracellular parasite action was investigated by using Chlamydia trachomatis (D/UW3/Cx). That is, Chlamydia trachomatis was cultured in the presence of ×2 dilution series of 8 to 64 μg/ml of luliconazole by using HeLa 229 cells as the host. MEM added with 8% thermally inactivated FBS, to which 1 μg/ml of cyclohexamide was added, was used as the medium, and the culture was performed for 72 hours in 5% carbon dioxide gas at 37° C. After the culture, Chlamydia inclusion bodies were subjected to the fluorescent staining to be apple green with Chlamydia FA reagent “Seiken” (produced by DENKA SEIKEN Co., Ltd.), and the observation was performed by using a fluorescence microscope.

protozoa = settings: stated as known; cited from earlier work
Chlamydia = settings: stated as known; cited from earlier work

Compound `N#C/C(=C1/SCC(c2ccccc2Cl)S1)n1ccnc1` (centres unmarked) [Lanoconazole, 4-(2-chlorophenyl)-1,3-dithiolane-2-ylidene-1-imidazolyl acetonitrile] has an MIC80 (Candida albicans; strain IFO0197, 35° C.) of 0.125 µg/mL (≈ 0.391 µM), an MIC80 (Candida albicans; strain IFO0579, 35° C.) of 0.0625 µg/mL (≈ 0.195 µM) and an MIC80 (Candida albicans; strain IFO1269, 35° C.) of 0.0625 µg/mL (≈ 0.195 µM). The MIC80 (Candida albicans; strain TIMM3164, 35° C.) was 0.5 µg/mL (≈ 1.56 µM), the MIC (Trichomonas vaginalis) was about 17.6 µM (≈ 5.63 µg/mL) and the Color (Trichomonas vaginalis; final concentration 8.8 μM) was “yellow”. For the same compound, the Color (Trichomonas vaginalis; final concentration 17.6 μM) was “red”, the “Result of microscopic observation” value (Trichomonas vaginalis; final concentration 17.6 μM) was “protozoas were observed slightly” and the Color (Trichomonas vaginalis; final concentration 35.2 μM) was “red”. For the same compound, the “Result of microscopic observation” value (Trichomonas vaginalis; final concentration 35.2 μM) was “no protozoa was observed” and the “growth of Trichomonas” value (Trichomonas vaginalis; no concentration stated) was “inhibits the growth”.
With `N#C/C(=C1/SC[C@@H](c2ccc(Cl)cc2Cl)S1)n1ccnc1` [Luliconazole, (R)-(−)-(E)-[4-(2,4-dichlorophenyl)-1,3-dithiolane-2-ylidene]-1-imidazolyl acetonitrile] the MIC ([1]; Chlamydia trachomatis, HeLa 229 host cells, 72 hours culture, read-out: MIC with respect to Chlamydia trachomatis) was 32 µg/mL (≈ 90.3 µM), the “observation result of Chlamydia inclusion bodies” value (shortened to “observation result”) ([1]; treatment with 8 μg/mL, FIG. 1 panel (A)) was “dot-shaped Chlamydia inclusion bodies stained apple green were observed” and the “observation result” value ([1]; treatment with 16 μg/mL, FIG. 1 panel (B)) was “dot-shaped Chlamydia inclusion bodies stained apple green were observed”. For the same compound, the “observation result” value ([1]; treatment with 32 μg/mL, FIG. 1 panel (C)) was “No inclusion body was found”, the MIC80 (Candida albicans; strain IFO0197, 35° C.) was 0.0625 µg/mL (≈ 0.176 µM) and the MIC80 (Candida albicans; strain IFO0579, 35° C.) was 0.0313 µg/mL (≈ 0.0883 µM). It also gave an MIC80 (Candida albicans; strain IFO1269, 35° C.) of 0.0625 µg/mL (≈ 0.176 µM), an MIC80 (Candida albicans; strain TIMM3164, 35° C.) of 0.5 µg/mL (≈ 1.41 µM) and an MIC (Trichomonas vaginalis) of about 8.8 µM (≈ 3.12 µg/mL). For the same compound, the “growth of Trichomonas” value (Trichomonas vaginalis; at 8.8 μM) was “inhibits the growth”, the Color (Trichomonas vaginalis; final concentration 8.8 μM) was “yellow” and the “Result of microscopic observation” value (Trichomonas vaginalis; final concentration 8.8 μM) was “protozoas were observed slightly”. The Color (Trichomonas vaginalis; final concentration 17.6 μM) was “red”, the “Result of microscopic observation” value (Trichomonas vaginalis; final concentration 17.6 μM) was “no protozoa was observed” and the Color (Trichomonas vaginalis; final concentration 35.2 μM) was “red”. The “Result of microscopic observation” value (Trichomonas vaginalis; final concentration 35.2 μM) was “no protozoa was observed”.
For `CCC(C)(C)c1ccc(CC(C)CN2C[C@@H](C)O[C@@H](C)C2)cc1` (some centres unmarked) [amorolfin], the antiprotozoal action (protozoa) is given as “do not have” and the anticlamydial action (Chlamydia) is given as “do not have”.
For `c1ccc(-c2ccc(C(c3ccccc3)n3ccnc3)cc2)cc1` (centres unmarked) [bifonazole], the antiprotozoal action (protozoa) is given as “do not have” and the anticlamydial action (Chlamydia) is given as “do not have”.
For `CN(Cc1ccc(C(C)(C)C)cc1)Cc1cccc2ccccc12` [butenafine], the antiprotozoal action (protozoa) is listed as “do not have” and the anticlamydial action (Chlamydia) is listed as “do not have”.
In the case of `Clc1ccc(COC(Cn2ccnc2)c2ccc(Cl)cc2Cl)c(Cl)c1` (centres unmarked) [miconazole], the antiprotozoal action (protozoa) is listed as “do not have” and the anticlamydial action (Chlamydia) is listed as “do not have”.
